The values that follow come from ChEMBL document CHEMBL1140151, “Alpha,beta-methylene-2'-deoxynucleoside 5'-triphosphates as noncleavable substrates for DNA polymerases: isolation, characterization, and stability studies of novel 2'-deoxycyclonucleosides, 3,5'-cyclo-dG, and 2,5'-cyclo-dT” (J Med Chem, 2008).

Experiment [1] has as its target T1, DNA polymerase beta (Homo sapiens, UniProt P06746). Nature of the experiment: Inhibition of human DNA polymerase beta.
For experiment [2], the target named is T1, DNA polymerase beta. Nature of the experiment: Inhibition of human DNA polymerase beta assessed as inhibition of dCTP incorporation by gap filling assay.

Active and inactive are the calls of the source. The calls are words filed in the database; no cut-off is given here.

Compound `Nc1ncnc2c1ncn2[C@H]1C[C@H](O)[C@@H](COP(=O)(O)CP(=O)(O)OP(=O)(O)O)O1` gave an inhibition constant (Ki) on DNA polymerase beta [1] of 5000 nM.
`Nc1nc2c(ncn2[C@H]2C[C@H](O)[C@@H](COP(=O)(O)CP(=O)(O)OP(=O)(O)O)O2)c(=O)[nH]1`: the inhibition constant (Ki) at DNA polymerase beta [1] was found to be 1000 nM.
At DNA polymerase beta [1], `Cc1cn([C@H]2C[C@H](O)[C@@H](COP(=O)(O)CP(=O)(O)OP(=O)(O)O)O2)c(=O)[nH]c1=O` yielded a Ki of 600 nM.
For `Nc1ccn([C@H]2C[C@H](O)[C@@H](COP(=O)(O)CP(=O)(O)OP(=O)(O)O)O2)c(=O)n1`, the affinity at DNA polymerase beta [1], expressed as Ki, was 900 nM. Also, the outcome at DNA polymerase beta [2] was Active.

What is called Ki is a measure of affinity in units of concentration, obtained from inhibition or displacement. A lower Ki goes with a stronger hold on the target.
